Laboratory results as given in patent US20130184338A1, “PHENYLPROPYL CARBAMATE DERIVATIVES FOR USE IN PREVENTING OR TREATING MULTIPLE SCLEROSIS” (Bio-Pharm Solutions Co., Ltd., priority 2011, published 2013).
Marks after values point to notes of the source that are not given here.

Columns and labels:
male ICR mice = test: MES (Maximal Electroshock Seizure) test in mice; details: Mus musculus, po; for ED50: read-out: MES test (po) ED50
male mice (ICR) [1] = test: Muscle relaxation: endurance time on rotarod rotating at accelerated speed; format: in vivo; details: Mus musculus, ip; intraperitoneal, at time of maximum effect; 50% of activity vs vehicle only; read-out: MR test ED50, I = Acc. Rotarod
Description: (§1) For testing, male mice (ICR) were purchased from ORIENT BIO INC. (Korea), divided into several groups with 6 mice in each group, and were adapted for 4-5 days. The mice having the weight ranging from 19 g to 26 g were employed for the test. The pharmacological effect of the test compounds on muscle relaxation was evaluated by Rotarod test, grip strength test, and muscular force (wire hang) test. All mice were adapted to the test environment at one hour before starting the tests. The pharmacological effects of all the test compounds were evaluated by administration through peritoneal cavity of the mice (10 ul/g, bw).
At 24 hours before testing, the mice to be tested were preliminarily trained for 5 minutes on a rod rotating at the rate of 6 revolutions per a minute. The pharmacological effect on muscle relaxation of the test compounds were evaluated by observing the mice on a rod for 5 minutes, where the rod was accelerated from 4 to 40 revolutions per a minute during the test time. The endurance time that each mouse endures on the acceleratedly rotated rod without falling off from the rod was recorded. As test time for evaluation, a maximum of 5 minutes was applied. […] This experimentation was conducted according to the method described in the reference, ‘Monville et al. (2006) Comparison of incremental and accelerating protocol of the rotarod test for the assessment of motor deficits in the 6-OHDA model. J. Neurosci. Meth. 158: 219-223’.
(§2) The results of muscle relaxation activity of the phenyl carbamate compounds measured in above Experimental Examples 11.2 to 11.5 are shown in following Table 5.

male mice (ICR) [2] = test: Muscle relaxation: residence time on rotarod rotating at fixed speed (15 r.p.m.); format: in vivo; details: Mus musculus, ip, read-out: MR test ED50, II = Fixed 15 r.p.m. Rotarod
male mice (ICR) [3] = test: Muscle relaxation: wire hang; format: in vivo; details: intraperitoneal; for ED50: Mus musculus, at time of maximum effect, 50% of activity vs vehicle only, read-out: MR test ED50, IV = Wire hang; for IV = Wire hang, effect (%) compared to control treated with vehicle only: concentration administered 100 mg/kg
Description: as §1
This experimentation was conducted using a metal wire of 30 cm in length, which was suspended between two pillars at a height of about 40 cm from the bottom covered with a soft pad. […] Each mouse was made to grip the wire using two forelimbs, and the elapse time before the mouse fell off from the wire to the pad on the bottom was recorded in seconds. Each mouse was given 5 opportunities for this test at an interval of 2 minutes period. The highest 3 records among the test opportunities were selected and the mean value was used as the test result. This experimentation was conducted according to the method described in the reference, ‘Jacqueline N. Crawley (1999) Behavioral phenotyping of transgenic and knockout mice: experimental design and evaluation of general health, sensory functions, motor abilities, and specific behavioral tests. Brain Res. 835: 18-26’.
as §2

male mice (ICR) [4] = test: Muscle relaxation: grip strength; format: in vivo; details: intraperitoneal; for ED50: Mus musculus, ip, at time of maximum effect, 50% of activity vs vehicle only, read-out: MR test ED50, III = Grip strength
Description: as §1
A grip strength test using the test animals' forelimbs was performed using an instrument equipped with triangle ring and designed so as to easily grip with the forelimbs of experimental animals, manufactured from Ugo Basile Inc. (Ugo Basile, Model47106, Italy). The test was conducted before and after administration of the compounds to evaluate the effects thereof. […] The mouse was made to grip the rod with its forelimbs, and its tail was pulled, where the force at which the mouse detached from the rod was recorded. The instrument indicated the force in grams. All of the mice were given […] for test, and the 3 highest values among the test opportunities were selected and the mean value was used as the test result. This experimentation was conducted according to the method described in the reference, ‘Nevins et al. (1993) Quantitative grip strength assessment as a means of evaluating muscle relaxation in mice. Psychopharmacol. 110: 92-96’.
as §2

[5] = intraperitoneal, at time of maximum effect, 50% of activity vs vehicle only
[6] = read-out: MES test (po) Protection %

Compound	ED50 (male mice (ICR) [1]) [mg/kg]	ED50 (male mice (ICR) [2]; [5]) [mg/kg]	ED50 (male mice (ICR) [3]) [mg/kg]	ED50 (male mice (ICR) [4]) [mg/kg]	other results
C[C@@H](OC(N)=O)[C@@H](O)c1ccccc1Cl [Compound 4, 1-(2-chlorophenyl)-(S)-1-hydroxypropyl-(R)-2-carbamate]	69.3	65	40	124	ED50 (male ICR mice): 82.4 mg/kg
CC[C@H](OC(N)=O)[C@@H](O)c1ccccc1I [Compound 67, 1-(2-iodophenyl)-(S)-1-hydroxybutyl-(S)-2-carbamate]	–	–	26.2	69.1	ED50 (male mice (ICR) [2]): 30.2 mg/kg
CC(OC(=O)NC1CC1)C(O)c1ccccc1Cl (racemic) [Compound 32, 1-(2-chlorophenyl)-1-hydroxypropyl-2-N-cyclopropylcarbamate]	–	–	36.6	45.2	responders at 200 mg/kg (male ICR mice; [6]): 100%
C[C@@H](OC(=O)NC1CC1)[C@H](O)c1ccccc1Cl (single isomer, unassigned) [Compound 25]	30	18.3	32.9	46.1	responders at 200 mg/kg (male ICR mice; [6]): 25%
C[C@@H](OC(N)=O)[C@H](O)c1ccccc1Cl [Compound 2, 1-(2-chlorophenyl)-(R)-1-hydroxypropyl-(R)-2-carbamate]	66.3	76.5	43.3	110	ED50 (male ICR mice): 51 mg/kg
CC(C)NC(=O)O[C@@H](C)[C@@H](O)c1ccccc1Cl [Compound 17, 1-(2-chlorophenyl)-(S)-1-hydroxypropyl-(R)-2-N-isopropylcarbamate]	73.1	66.4	41.4	91.5	–
C[C@H](OC(=O)NC1CCCCC1)[C@@H](O)c1ccccc1Cl [Compound 19, 1-(2-chlorophenyl)-(S)-1-hydroxypropyl-(R)-2-N-cyclohexyl carbamate]	95.3	–	28.5	110	–
CC(OC(=O)NC1CCCCC1)C(O)c1ccccc1Cl (racemic) [Compound 33, 1-(2-chlorophenyl)-1-hydroxypropyl-2-N-cyclohexylcarbamate]	–	–	74.6	–	–
C[C@H](OC(N)=O)[C@H](O)c1ccccc1Cl [Compound 5, 1-(2-chlorophenyl)-(R)-1-hydroxypropyl-(S)-2-carbamate]	66.9	65.5	52.5	95	ED50 (male ICR mice): 84.1 mg/kg
CC(C)C(OC(N)=O)C(O)c1ccccc1Cl (racemic) [Compound 11, 1-(2-chlorophenyl)-1-hydroxy-3-methyl-butyl-2-carbamate]	102	–	–	126	–
CCC(OC(N)=O)C(O)c1ccccc1Cl (racemic) [Compound 8, 1-(2-chlorophenyl)-1-hydroxybutyl-2-carbamate]	50.6	–	–	69.5	–
CNC(=O)O[C@@H](C)[C@@H](O)c1ccccc1Cl [Compound 15, 1-(2-chlorophenyl)-(S)-1-hydroxypropyl-(S)-2-N-methylcarbamate]	51.4	42.8	25.4	83.6	responders at 100 mg/kg (male ICR mice; [6]): 75%
C[C@@H](OC(=O)NC1CCCCC1)[C@H](O)c1ccccc1Cl [Compound 26, 1-(2-chlorophenyl)-(R)-1-hydroxypropyl-(R)-2-N-cyclohexyl carbamate]	–	–	63.8	–	–
C[C@H](OC(N)=O)[C@@H](O)c1ccccc1I [Compound 65, 1-(2-iodophenyl)-(S)-1-hydroxypropyl-(S)-2-carbamate]	–	–	23.4	42.9	ED50 (male mice (ICR) [2]): 28 mg/kg
CC(C)NC(=O)O[C@H](C)[C@H](O)c1ccccc1Cl [Compound 24, 1-(2-chlorophenyl)-(R)-1-hydroxypropyl-(R)-2-N-isopropylcarbamate]	38.6	44.3	17.8	48.8	–
CC(C)[C@H](OC(N)=O)[C@@H](O)c1ccccc1Cl [Compound 9, 1-(2-chlorophenyl)-(S)-1-hydroxy-3-methyl-butyl-(S)-2-carbamate]	–	–	–	104	–
CC[C@@H](OC(N)=O)[C@H](O)c1ccccc1Cl [Compound 7, 1-(2-chlorophenyl)-(R)-1-hydroxybtyl-(R)-2-carbamate]	–	–	–	248	–
CC(OC(N)=O)C(O)c1ccccc1Cl (racemic) [Compound 3, 1-(2-chlorophenyl)-1-hydroxypropyl-2-carbamate]	57.1	47.7	34	72.6	ED50 (male ICR mice): 31.4 mg/kg
CCCNC(=O)O[C@@H](C)[C@@H](O)c1ccccc1Cl [Compound 16, 1-(2-chlorophenyl)-(S)-1-hydroxypropyl-(S)-2-N-propylcarbamate]	48.7	61.6	16.1	67.8	responders at 200 mg/kg (male ICR mice; [6]): 25%
CCCNC(=O)OC(C)C(O)c1ccccc1Cl (racemic) [Compound 30, 1-(2-chlorophenyl)-1-hydroxypropyl-2-N-propylcarbamate]	–	–	31.7	65.4	responders at 200 mg/kg (male ICR mice; [6]): 25%
C[C@H](OC(N)=O)[C@@H](O)c1ccccc1F [Compound 63, 1-(2-fluorophenyl)-(S)-1-hydroxypropyl-(S)-2-carbamate]	–	–	–	118	IV = Wire hang, effect (%) compared to control treated with vehicle only (male mice (ICR) [3]): 100^a (84.2%)
C[C@@H](OC(N)=O)[C@H](O)c1ccccc1I [Compound 66, 1-(2-iodophenyl)-(R)-1-hydroxypropyl-(R)-2-carbamate]	–	–	76.3	46	ED50 (male mice (ICR) [2]): 67.9 mg/kg
CCCNC(=O)O[C@H](C)[C@H](O)c1ccccc1Cl [Compound 23, 1-(2-chlorophenyl)-(R)-1-hydroxypropyl-(R)-2-N-propylcarbamate]	–	–	46	73.8	responders at 200 mg/kg (male ICR mice; [6]): 25%
C[C@@H](OC(N)=O)[C@H](O)c1ccc(Cl)cc1Cl [Compound 45, 1-(2,4-dichlorophenyl)-(R)-1-hydroxypropyl-(R)-2-carbamate]	–	–	–	–	responders at 200 mg/kg (male ICR mice; [6]): 0%
CNC(=O)OC(C)C(O)c1ccccc1Cl (racemic) [Compound 29, 1-(2-chlorophenyl)-1-hydroxypropyl-2-N-methylcarbamate]	30.2	41	38	46	responders at 200 mg/kg (male ICR mice; [6]): 75%
C[C@@H](OC(N)=O)[C@H](O)c1ccccc1F [Compound 64, 1-(2-fluorophenyl)-(R)-1-hydroxypropyl-(R)-2-carbamate]	–	–	–	–	IV = Wire hang, effect (%) compared to control treated with vehicle only (male mice (ICR) [3]): 100^a (30.8%); III = Grip strength, effect (%) compared to control treated with vehicle only (male mice (ICR) [4]; concentration administered 120 mg/kg): 120^a (35.4%)
CC[C@H](OC(N)=O)[C@@H](O)c1ccccc1Cl [Compound 6, 1-(2-chlorophenyl)-(S)-1-hydroxybutyl-(S)-2-carbamate]	–	–	–	70.7	–
CC(C)NC(=O)OC(C)C(O)c1ccccc1Cl (racemic) [Compound 31, 1-(2-chlorophenyl)-1-hydroxypropyl-2-N-isopropylcarbamate]	–	–	52.1	50.4	responders at 200 mg/kg (male ICR mice; [6]): 25%
CNC(=O)O[C@H](C)[C@H](O)c1ccccc1Cl [Compound 22, 1-(2-chlorophenyl)-(R)-1-hydroxypropyl-(R)-2-N-methylcarbamate]	25.7	25.1	22.4	28.3	–
